Assay results published in patent publication US7728146B2, “Enzyme inhibitors” (Probiodrug AG, priority 2006, dated 2010).

Tests used:
[1] = system: liver cell carcinoma cell line Hep-G2; experiment: Cytotoxicity screening and LD50 determination on Hep-G2 (LDH, CytoTox-One); format: cell-based; details: for LD50 Viability HEP-G2 / LD50 cytotox HEP-G2: 8 serial dilutions, highest concentration 1 mM; for Cytotox 100 μM (%) HEPG2 / Viability 100 μM (%) HEP-G2: 24 h; for Cytotox 100 μM (%) HEPG2: LDH activity in cell culture media, lysed untreated cells = 100%; for Viability 100 μM (%) HEP-G2: LDH of lysed cells, untreated control = 100%
Procedure, shortened: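 Hep-G2 cells (50 000/well) precultured 24 h, then compound in DMSO (final 1%) added for 24 h. Screen at 100 μM, 2 μM, 40 nM in triplicate. LDH in medium gave cytotoxicity (untreated 0%, lysed 100%); LDH of lysed cells gave viability. LD50 from 8 serial dilutions, top 1 mM.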

[2] = system: neuroblastoma cell line SY5Y; experiment: LD50 determination on SY5Y (LDH); format: cell-based; details: 8 serial dilutions, highest concentration 1 mM
Description: After 24 h of cultivation in a 96 well plate (50 000 cells/well) compounds (dissolved in DMSO) are added and cytotoxicity and vitality of the cells are analysed after another 24 h of cultivation using the CytoTox-One Homogenoeous membrane toxicity assay (Promega).
For cytotoxicity the LDH activity in the cell culture media after 24 h of incubation are analysed. The untreated control is set to 0% cytotoxicity. For the 100% value LDH activity of lysed untreated cells are analysed.
For viability cell culture media are removed from the cells and all cells are lysed using the lysis buffer. LDH activity is determined and untreated control is set to 100% viability.
For determination of LD50 the liver carcinoma cell line HEP-G2 and the neuroblastoma cell line SY5Y may be used. The effect of 8 serial dilutions of the compounds (highest concentration 1 mM) is investigated as described above.

[3] = biological target: DPII (Homo sapiens, UniProt Q9UHL4); experiment: DPII assay; format: biochemical; details: for Selectivity DPII(IC50)/DPIV(Ki): ratio IC50 DPII / Ki DP IV; for IC50: sodium acetate buffer pH 5.5, Gly-Pro-AMC 1 mM
Description: (§1) Determination of IC50 values for DPII and DP9 are done similarly as described for DP IV.
For DPII instead of the HEPES buffer a 0.2 M sodium acetate buffer pH 5.5 is used. As substrate Gly-Pro-AMC is used in a final concentration of 1 mM.

[4] = solubility (dosing solution in saline); format: physicochemical; details: compounds were dissolved in saline for dosing
Description: The animals were treated by a single oral dose of 3 mg/kg (5 mL/kg b.w.; treatment A) followed by a wash-out period of at least 3 days before intraarterial administration of 3 mg/kg (2 mL/kg b.w.; treatment B). The compounds were dissolved in saline to a final concentration adequate for an application of 3 mg/kg b.w.

[5] = Caco-2 transport assay; format: in vitro ADME, human; details: human, Caco-2, pH 7.5; for Papp A→B: apical to basal; for Papp B→A: basal to apical
Description: (§2) The concentration of compounds in the Caco experiments may be determined from their potency to inhibit recombinant human DP IV.
(§3) Reaction is started by addition of 20 μl rhDP IV and release of pNA was monitored at 405 nm. Samples are analyzed in several dilutions (undiluted, 1:10, 1:[…]). Dilutions are done in the Caco assay buffer. Activity measured with Caco-assay buffer alone is set to 100% and inhibitor concentration is calculated from the dilutions resulting in 20 to 80% inhibition according to the equation for competitive inhibition.
(§4) [formula] • I=inhibitor concentration • v0=velocity of the reaction without inhibitor (Caco assay buffer alone) • vi=velocity of the reaction with inhibitor sample • Ki=Ki-value of the compound • DF=dilution factor of the sample Transport Assay
(§5) The human colon adenocarcinome cell line Caco-2 are grown in 6- or 24-transwell microplates (Costar) for 21 days with MEM-alpha containing 10% FBS and 0.5% Gentamycin (Invitrogen). After 21 days of cultivation integrity of the cell layer are assessed by measurement of the transepitelial electrical resistance.
(§6) Transport measurements are carried out in triplicates at a pH of 7.5. For each compound and direction (apical to basal (a-b), basal to apical (b-a)) two separate experiments are done. Samples are collected from the donor and acceptor compartments at the beginning of the experiment and after 60 min (for 6-well plates, Donor at 0 and 120 min, Acceptor at 15, 30, 60 and 120 min).
(§7) Samples are analyzed in several dilutions for their ability to inhibit human recombinant DP IV and compound concentrations may be calculated using the prior determined Ki-value (see above).
(§8) The permeability coefficient Papp is calculated according to the following equation:
(§9) [formula] • VA=Volume of the acceptor compartment • A=Area of the transwell membrane • t=sampling time • cAt=concentration in the acceptor compartment at sampling time • CDO=concentration in the donor compartment at t=0
(§10) Papp-values>1e-5 cm/s are assessed as good permeable, value<1e-6 cm/s as not permeable. Papp-values in between as medium permeable. Compounds where no significant difference were found between a-b and b-a transport are assessed to be passive transported.

[6] = system: Caco-2 monolayer; experiment: Caco-2 transport assay; format: in vitro ADME, human; details: assessment of permeability and transport type
Description: as §2, §3, §4, §5, §6, §7, §8, §9, §10

[7] = biological target: dipeptidyl peptidase (DP IV) (UniProt P27487); experiment: Determination of IC50 against DP IV (hydrolysis of Gly-Pro-pNA); format: biochemical, porcine kidney or recombinant human; details: compounds obtained by preparative synthesis
Description: Determination of IC50 Against DP IV
Substances are screened for inhibition of dipeptidyl peptidase (DP IV) by their ability to inhibit the hydrolysis of the DP IV specific substrate Glycyl-Prolyl-4-Nitroanilide (Gly-Pro-pNA). All compounds are diluted in DMSO and IC50 will be determined with 11 serial dilutions (1:2) starting with an final concentration of 100 μM. The final DMSO concentration in the assay is 5% (v/v). The method was automated using a Tecan Genesis Freedom liquid handler and a Genius Pro (Tecan) microplate reader.
A stock solution of 0.102 M HEPES is prepared. Ionic strength (I=0.32) is adjusted by KCl and pH (pH 7.6) by KOH.
2.16 mM solution of Gly-Pro-pNA in deionized water is prepared.
All samples are dissolved in DMSO preparing a 10 mM stock solution.
DP IV from porcine kidney (pDP IV) or recombinant human DP IV (rhDP IV) is diluted in HEPES buffer to a final activity of approximately 40-50 μU*ml^−1. The DP IV is stored in a cooling rack (4° C.) on the liquid handler.
The assay may becarried out at room temperature using Freedom liquid handler connected with a Genios Pro microplate reader. Each sample is measured in duplicate. Each sample stock solution is prediluted with DMSO in a ratio of 1:5 in a polypropylen 96-well plate. From this predilution 10 serial (1:2) dilutions in DMSO are prepared. 13.5 μl of the 11 DMSO dilutions and DMSO alone are transferred to the measurement microplate (duplicates) and 86.5 μl water, 100 μl HEPES buffer and 50 μl substrate solution are added to each well. The enzymatic reaction is started by addition of 20 μl enzyme solution to each well, and then the microplate is immediately transferred to the microplate reader.
After short mixing (20 s) the release of 4-Nitroanilin (pNA) is monitored at 405 nm for 30 cycles (approx. 18 min).
Post assay calculations are done by the Magellan (Tecan) and Graphit Software. The linear slopes are calculated for each well and averaged for the duplicates. The residue activities are calculated in relation to a sample containing only solvent instead of inhibitor and expressed in %. Residue activities are plotted against the log of inhibitor concentrations and IC50 is calculated by an 4-parameter fitting ranging from 0 to 100%.

[8] = biological target: DP9 (Homo sapiens, UniProt Q86TI2); experiment: DP9 assay; format: biochemical; details: for IC50: Gly Pro-AMC 0.25 mM; for Selectivity DP9(IC50)/DPIV(Ki): ratio IC50 DP9 / Ki DP IV
Description: as §1
For DP9 Gly Pro-AMC is used as substrate in a final concentration of 0.25 mM.

[9] = biological target: T1, DP IV (Homo sapiens, UniProt P27487); experiment: Ki and inhibition type, DP IV; format: biochemical; details: compounds obtained by preparative synthesis
Description: Measurement of DP IV activities for Ki determination is carried out as described for IC50. For Ki determination samples were analysed in triplicates. 7 serial dilutions of the inhibitor (range calculated from the IC50 determination) in water are analyzed with 4 serial dilutions of the substrate.
Data are analysed by non-linear regression to the inhibitor equations using Graphit software. Ki-value and inhibition type are determined using the inhibitor equation (competitive, partiell competitive, non-competitive) which gives the best fitting results. […]

[10] = biological target: T1, DP IV; experiment: DP IV inhibition IC50, parallel-synthesis compounds tested directly following synthesis (without purification); format: biochemical; design: IC50 DP4; other: tested directly following parallel synthesis, without purification; compounds of formula (Ib) from parallel synthesis, tested directly following synthesis; details: DP IV inhibition; compounds of formula (Ib) from parallel synthesis, tested directly following synthesis (without purification); read-out: IC50
Procedure, shortened: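 IC50 came from a 4-parameter fit of residual activity (linear 405 nm slopes for pNA release over ~18 min, relative to solvent-only wells). Gly-Pro-pNA was the substrate, cleaved by porcine kidney or recombinant human DP IV at room temperature in HEPES with 5% DMSO; duplicate 1:2 series started at 100 μM final.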

DP9, sequence (Q86TI2 whole entry, species assumed): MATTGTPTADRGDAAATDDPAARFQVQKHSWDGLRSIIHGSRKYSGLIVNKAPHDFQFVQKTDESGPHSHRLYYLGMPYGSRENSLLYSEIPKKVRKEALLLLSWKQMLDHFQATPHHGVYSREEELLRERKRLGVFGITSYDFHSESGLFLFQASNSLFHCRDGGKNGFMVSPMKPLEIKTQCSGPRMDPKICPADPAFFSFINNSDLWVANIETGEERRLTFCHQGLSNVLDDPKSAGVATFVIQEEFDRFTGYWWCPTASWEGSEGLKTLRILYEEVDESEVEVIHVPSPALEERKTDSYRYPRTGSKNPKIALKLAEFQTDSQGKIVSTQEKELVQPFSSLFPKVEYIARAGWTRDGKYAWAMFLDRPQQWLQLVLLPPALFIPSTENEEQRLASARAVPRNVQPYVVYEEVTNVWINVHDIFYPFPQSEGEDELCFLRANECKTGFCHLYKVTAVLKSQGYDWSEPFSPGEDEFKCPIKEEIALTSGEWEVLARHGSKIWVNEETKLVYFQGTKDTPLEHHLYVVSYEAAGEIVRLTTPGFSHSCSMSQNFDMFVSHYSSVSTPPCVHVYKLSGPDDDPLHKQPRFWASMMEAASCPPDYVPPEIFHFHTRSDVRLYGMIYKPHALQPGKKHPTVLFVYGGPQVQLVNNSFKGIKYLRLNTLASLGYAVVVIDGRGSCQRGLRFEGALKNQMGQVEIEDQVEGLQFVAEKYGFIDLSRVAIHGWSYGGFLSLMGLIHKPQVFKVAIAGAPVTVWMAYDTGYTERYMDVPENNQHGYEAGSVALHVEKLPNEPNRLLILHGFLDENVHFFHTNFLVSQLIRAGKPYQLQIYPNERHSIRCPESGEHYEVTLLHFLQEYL
T1 sequence (P27487 whole entry): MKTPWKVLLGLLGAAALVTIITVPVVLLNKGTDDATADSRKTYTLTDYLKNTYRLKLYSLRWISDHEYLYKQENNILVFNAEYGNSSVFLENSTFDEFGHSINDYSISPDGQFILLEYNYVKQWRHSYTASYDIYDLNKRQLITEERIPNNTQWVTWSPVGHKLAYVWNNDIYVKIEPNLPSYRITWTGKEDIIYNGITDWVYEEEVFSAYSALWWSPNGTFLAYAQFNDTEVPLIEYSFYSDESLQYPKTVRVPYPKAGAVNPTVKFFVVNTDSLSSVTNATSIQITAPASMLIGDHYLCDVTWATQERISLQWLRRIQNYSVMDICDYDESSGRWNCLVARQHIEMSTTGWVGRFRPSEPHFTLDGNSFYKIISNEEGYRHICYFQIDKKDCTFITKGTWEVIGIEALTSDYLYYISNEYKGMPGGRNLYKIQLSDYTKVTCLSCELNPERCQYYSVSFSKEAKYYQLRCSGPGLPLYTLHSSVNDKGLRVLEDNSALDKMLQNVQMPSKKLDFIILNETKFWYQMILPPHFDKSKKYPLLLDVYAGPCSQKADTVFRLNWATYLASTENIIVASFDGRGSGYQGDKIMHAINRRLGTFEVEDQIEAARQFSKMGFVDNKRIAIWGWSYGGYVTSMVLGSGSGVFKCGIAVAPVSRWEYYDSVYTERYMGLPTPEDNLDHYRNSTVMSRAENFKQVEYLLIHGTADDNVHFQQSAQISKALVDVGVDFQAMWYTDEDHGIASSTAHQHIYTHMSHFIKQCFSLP

| SMILES | LD50 Viability HEP-G2 [1] | LD50 cytotox HEP-G2 [1] | LD50 Viability SY5Y [2] | LD50 cytotox SY5Y [2] | Ki [3] | Selectivity DPII(IC50)/DPIV(Ki) [3] | IC50 [3] | solubility [4] | Papp A→B [5] | Papp B→A [5] | Transport [6] | IC50 [7] | IC50 [8] | Selectivity DP9(IC50)/DPIV(Ki) [8] | Ki [9] | IC50 [10] | Ki [8] | Cytotox 100 μM (%) HEPG2 ([1]; 100 μM) | Viability 100 μM (%) HEP-G2 ([1]; 100 μM) | Observed cytotox ([1]; 100 μM, Hep-G2, observation of the cells) |
| --- | --- | --- | --- | --- | --- | --- | --- | --- | --- | --- | --- | --- | --- | --- | --- | --- | --- | --- | --- | --- |
| CCOc1ccccc1Cn1cnc(-c2ccc(Cl)cc2Cl)c1CN [Example 128b, (1-(2-ethoxybenzyl)-4-(2,4-dichlorophenyl)-1H-imidazol-5-yl)methanamine] | 0.15 mM | 0.14 mM | 0.07 mM | 0.15 mM | 1570 nM | 540 | 3420 nM | low solubility | 45.1 ×10⁻⁶ cm/s | 15 ×10⁻⁶ cm/s | good, active in | 54 nM | 34300 nM | 5,419 | 6.33 nM | – | – | – | – | – |
| NCc1c(-c2ccc(Cl)cc2Cl)ncn1Cc1ccccc1Cl [Example 81b, C-[3-(2-chloro-benzyl)-5-(2,4-dichloro-phenyl)-3H-imidazol-4-yl]-methylamine] | 0.14 mM | 0.12 mM | 0.07 mM | 0.16 mM | 2180 nM | 383 | 7460 nM | – | 41.9 ×10⁻⁶ cm/s | 16 ×10⁻⁶ cm/s | good, active in | 139 nM | 38300 nM | 1,964 | 19.5 nM | 1000 nM | 7650 nM | – | – | – |
| COc1ccccc1Cn1cnc(-c2ccc(Cl)cc2Cl)c1CN [Example 120b, C-[5-(2,4-dichloro-phenyl)-3-(2-methoxy-benzyl)-3H-imidazol-4-yl]-methylamine] | 0.21 mM | 0.17 mM | 0.10 mM | 0.16 mM | – | 1,177 | 18600 nM | – | 51.2 ×10⁻⁶ cm/s | 52.8 ×10⁻⁶ cm/s | good, passive | 261 nM | 59700 nM | 3,778 | 15.8 nM | 1900 nM | – | 11.6% | 108.9% | 50% spheric |
| NCc1c(-c2ccc(Cl)cc2Cl)ncn1Cc1ccccc1F [Example 112b, C-[5-(2,4-dichloro-phenyl)-3-(2-fluoro-benzyl)-3H-imidazol-4-yl]-methylamine] | – | – | – | – | – | 3,514 | 36900 nM | – | 44.8 ×10⁻⁶ cm/s | 42.1 ×10⁻⁶ cm/s | good, passive | 195 nM | – | 9,714 | 10.5 nM | 3700 nM | – | 3.0% | 111.4% | – |
